Results from US11246898B2 (priority 2017, dated 2022).
Read-outs that look alike come from different tables or passages of the source.

Columns and labels:
in vitro = conditions: African green monkey
Ebola virus/Zaire [1] = assay: microbe, parasite or virus in culture; type: cell-based; conditions: Zaire ebolavirus
Ebola virus/Zaire [2] = type: cell-based

Row | Molecule | CC50 (in vitro) [µM] | EC50 (Ebola virus/Zaire [1]) [µM] | EC50 (Ebola virus/Zaire [2]) [µg/mL] | EC90 (Ebola virus/Zaire [2]) [µg/mL] | CC50 (CellTiter96 (MTS) cells) [µg/mL]
1 | NC(=O)c1nc(F)c[nH]c1=O [Favipiravir] | > 1000 | 96 | – | – | –
2 | Allophycocyanin | – | – | 1.77 | >400 | >400
